Experimental data published in patent US20250034139A1, “AMINE COMPOUNDS HAVING ANTI-INFLAMMATORY, ANTIFUNGAL, ANTIPARASITIC, AND ANTICANCER ACTIVITY” (PHARMA CINQ, LLC, priority 2013, published 2025).
Converted amounts (≈) assume the structure as drawn.

What was measured:
THP-1 cells = experiment: Example D: LPS-triggered THP-1 cell death assay, acute/5-hour and chronic/48-hour; type: cell-based, Human; details: for activity relative to AC in the LPS-triggered THP-1 cell death assay, in words: 0.1 μM, 5-hour and 48-hour time points; for Viable cell percent change, Chronic/48-hour, Mean: 10 ng/ml LPS, 0.1 μM test compound
Method: Compounds of the invention were tested at 0.1 μM versus AC in the LPS-triggered THP-1 cell death assay. Both acute/5-hour and chronic/48-hour phases of cell death were assessed. Compounds were screened in batches with DMSO as the negative control and AC as the high activity control.

[1] = system: Candida albicans strain 3153; experiment: Example H: Candida albicans growth inhibition (OD 600 nm); type: cell-based; details: for MIC: Candida albicans, 3153, 24 hrs at 30° C., YPD, XLfit, read-out: MIC (uM) (99% of inhibition of fungal growth); for IC50: Candida albicans, 3153, read-out: IC50 (uM) (50% inhibition of fungal growth), 24 hrs at 30° C., YPD, XLfit
Method: A single colony of Candida Albicans was grown in 50 ml YPD broth overnight (19 hr). The cells were washed with PBS and 3.5×10^4 CFU/ml of C. Albicans (144 μl/well) in YPD medium were plated in 96 well plates. Test compounds were then added to each well with concentration ranged from 5 to 40 μM as final concentrations. The plates were incubated at 30° C. overnight (24 hrs) and OD at 600 nm was read at the end of incubation as an index of yeast cell density.
Part-I: Preparation of Candida albicans Cells • 1. One day prior to the inoculum preparation, pick a single colony of Candida albicans strain 3153 (lot #61794) from the Sabouraud Dextrose Agar plate using the inoculum loop and inoculate into a 250 mL flask containing 50 ml of YPD growth medium • 2. Incubate at 30° C. with shaking at 150 rpm for at least 18 hours with loosened lid to allow air in and facilitate growth. • 3. Examine an aliquot of the culture under a microscope for Candida cell morphology and lack of bacterial contamination; >95% of Candida cells should be blastoconidia. • 4. Transfer 25 ml the overnight culture into a 50-ml plastic disposable centrifuge tube, and centrifuge at 1000×g for 20 min. • 5. Discard the supernatant and wash the pellet with 4 ml of PBS at three times. Vortex and centrifuge, 1000×g for 10 min. • 6. After the third wash, dispense the pellet with 2 ml PBS and vortex. • 7. Make three 1:10 serial dilutions in sterile PBS (10^−1, 10^−2, 10^−3) from the 2 ml cell suspension using 15 ml culture tubes. The final volume in each tube is 5 ml. • 8. […] Make a 1:4 dilution in YPD medium from the 50-fold dilution of 10^−3 cell suspension for testing compounds. • The final C. albicans cell concentration for the test: 3.5×10^4 CFU/ml • 10. Plated 144 ul/well of the above dilution of cell on 96-well plates. Part-II: C. Albicans Growth Inhibition Testing with Compounds • 1. From 10 mM DMSO stock solutions, make serial dilutions of compounds to 0.13, 0.25, 0.40, 0.55, 0.75 and 1.0 mM solutions • 2. Add 6 ul each of diluted compound solutions per well in duplicates. The final concentrations were 0, 5, 10, 16, 22, 30 and 40 micromolar. • 3. Incubated all plates at 30 C for overnight (˜24 hours). • 4. Read absorbance at OD600 for each plate. • 5. Calculate the % inhibition of each compound against the DMSO treated cell.

[2] = system: 4T1 murine breast cancer cells; experiment: Example S: in vitro anticancer screen, 4T1 cells, Wst1; type: cell-based, mouse; details: Mus musculus, 4T1, 18 h, 18 hr, Wst1; for viability at 1 µM: read-out: 4T1 1 μM, percent of cancer cell survival relative to vehicle treated cells; for viability at 5 µM: read-out: 4T1 5 μM, percent of cancer cell survival relative to vehicle treated cells
Method in brief: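 4T1 cells seeded at 1×10^4/well were exposed to compound at 1 μM or 5 μM for 18 hr after plating. Wst1 tetrazolium dye was then added for about 2 hr and absorbance read at 450 nm (reference 630 nm). Values are percent survival relative to vehicle-treated cells.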

[3] = system: PC3 human prostate cancer cells; experiment: Example S: in vitro anticancer screen, PC-3 cells, Wst1; type: cell-based; details: Homo sapiens, PC-3, approximately 20 hours, Wst1, read-out: PC-3, percent of cancer cell survival relative to vehicle treated cells
Method in brief: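 PC-3 cells, 2×10^4 cells/well, exposed ~20 h to vehicle or compound at 0.4, 0.5 or 2.5 μM as specified per compound. Wst1 dye added for 2 h; absorbance 450 nm (reference 630 nm), triplicates. Values are percent cell survival versus vehicle-treated cells.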

[4] = system: PC-3 prostate cancer cells; experiment: Example T: sensitisation of PC-3 cells to doxorubicin, oxaliplatin, paclitaxel or vincristine, Wst1; type: cell-based, human; details: PC-3 cells, 72 hours; for viability at 0.4 µM / viability at 2.5 µM: Homo sapiens, Wst1, vehicle = 100, read-out: No Chemo: percent cell survival; for viability at 0.4 µM: compound 0.4 μM alone; for Doxorubicin 3.5 μM: percent cell survival / Oxaliplatin 100 μM: percent cell survival / Paclitaxel 50 μM: percent cell survival / Vincristine 100 nM: percent cell survival: chemotherapy agent alone normalized to 100%; for viability at 2.5 µM: compound 2.5 μM alone
[5] = system: Cryptococcus neoformans (serotype D); experiment: Example K: Cryptococcus neoformans (serotype D) growth inhibition; type: cell-based; details: Cryptococcus deneoformans, OD of 48 hour reading, 37° C., tested 4 to 60 μM, XLfit
Method: Cryptococcus neoformans (serotype D) were plated in 96 well plates with 144 μl/well of 8×10e5 CFU/ml in YM growth medium. Diluted compounds were then added to each well with concentration ranged from 4 to 60 μM as final concentration in duplicates. The plates were inoculated at 37° C. for total of 48 hours. Two readings of OD at 600 nm were measured after 30 and 48 hour treatments.
• 1. Pick a single colony of Cryptococcus from the YM agar plate using the inoculum loop and inoculate into a 125 ml flask containing 25 ml of YM growth medium. • 2. Incubate at 37° C. with shaking at 220 rpm for 24 hours with loosen lid to allow air in and facilitates growth. • 3. Examine an aliquot of the culture under a microscope for yeast cell morphology and lack of bacterial contamination. • 4. Dilute the overnight culture with YM medium at 1:100 dilution and count the number of cells as 1×10^6 cfu/ml. • 5. Make a final concentration of cells suspension at 8×10^5 cfu/ml in YM medium. • 6. Plate 144 μl/well of 8×10^5 cfu/ml cell suspension on 96-well plates. Part-II: Cryptococcus Growth Inhibition Testing with Compounds • 1. From 10 mM DMSO stock solutions, make serial dilutions of compounds to 0.1, 0.2, 0.3, 0.5, 1.0 and 1.5 mM solution. • 2. Add 6 ul each of diluted compound solutions per well in duplicates. The final concentrations were 0, 4, 8, 12, 20, 40 and 60 micromolar. • 3. Incubated all plates at 37° C. overnight (30 hours) with 150 rpm shaking. • 4. Read absorbance at OD600 for each plate. • 5. Leave plates in 37° C. incubator for another day and read absorbance at OD600 again at 48 hours to ensure the inhibitory effect of the compounds. • 6. Calculated the % inhibition and IC50 of each compound against untreated cells.

[6] = compound 0.4 μM + doxorubicin 3.5 μM
[7] = compound 0.4 μM + oxaliplatin 100 μM
[8] = compound 0.4 μM + paclitaxel 50 μM
[9] = compound 0.4 μM + vincristine 100 nM
[10] = compound 2.5 μM + doxorubicin 3.5 μM
[11] = compound 2.5 μM + oxaliplatin 100 μM
[12] = compound 2.5 μM + paclitaxel 50 μM
[13] = compound 2.5 μM + vincristine 100 nM

Structure (SMILES)	activity relative to AC in the LPS-triggered THP-1 cell death assay, in words (THP-1 cells)	MIC [1] [µM]	IC50 [1] [µM]	viability at 1 µM [2] [%]	viability at 5 µM [2] [%]	viability at 0.4 µM [3] [%]	viability at 0.4 µM [4] [%]	Doxorubicin 3.5 μM: percent cell survival [4, 6] [%]	Oxaliplatin 100 μM: percent cell survival [4, 7] [%]	Paclitaxel 50 μM: percent cell survival [4, 8] [%]	Vincristine 100 nM: percent cell survival [4, 9] [%]	Viable cell percent change, Chronic/48-hour, Mean (THP-1 cells) [%]	viability at 2.5 µM [3] [%]	viability at 2.5 µM [4] [%]	Doxorubicin 3.5 μM: percent cell survival [4, 10] [%]	Oxaliplatin 100 μM: percent cell survival [4, 11] [%]	Paclitaxel 50 μM: percent cell survival [4, 12] [%]	Vincristine 100 nM: percent cell survival [4, 13] [%]	IC50 ([5]; read-out: IC50 (concentration for 50% of inhibition)) [µM]	MIC ([5]; read-out: MIC (concentration for maximum-99% of inhibition)) [µM]
CCCOCCOCCCCCCCCNc1ccnc2ccccc12 [BD, N-[8-(2-Propoxyethoxy)octyl]quinolin-4-amine]	equivalent activity to AC at both the 5-hour and 48-hour time points	134 (≈ 48 µg/mL)	37.5	25.5	27.7	29.3	29.3	66.1	61.3	28.4	33.3	–	–	–	–	–	–	–	–	–
CCCCCCOCCCOCCCCCNc1ccnc2ccccc12 [BB, N-{5-[3-(Hexyloxy)propoxy]pentyl}quinolin-4-amine]	–	99.7 (≈ 37.1 µg/mL)	50.9	59.6	41.1	–	–	–	–	–	–	0.65	16.3	16.3	20.4	24.7	25	17.2	–	–
COc1cccc(OCCCCCCCCNc2ccnc3ccccc23)c1 [BH, N-[8-(3-Methoxyphenoxy)octyl]quinolin-4-amine]	equivalent activity to AC at both the 5-hour and 48-hour time points	30.1 (≈ 11.4 µg/mL)	18.1	21	19.3	98.5	98.5	35.7	30.6	61	71.6	34.77	–	–	–	–	–	–	–	–
CCOCCCOCCCCCCCCNc1ccnc2ccccc12 [AJ, N-[8-(3-Ethoxypropoxy)octyl]quinolin-4-amine]	equivalent activity to AC at both the 5-hour and 48-hour time points	113 (≈ 40.7 µg/mL)	43.2	22.4	21.1	18.5	18.5	33.1	22.5	20.8	20.1	–	–	–	–	–	–	–	–	–
c1ccc(OCCCCCCNc2ccnc3ccccc23)cc1 [AR, N-(6-Phenoxyhexyl)quinolin-4-amine]	equivalent activity to AC at both the 5-hour and 48-hour time points	69.8 (≈ 22.4 µg/mL)	46.1	25.4	47	57	57	22.4	24.1	54.1	24.2	28.75	–	–	–	–	–	–	–	–
CCCCOCCCCCCCCn1cnc2cnc3ccccc3c21 [BQ, 1-(8-Butoxyoctyl)-1H-imidazo[4,5-c]quinoline]	–	–	51.7	–	–	–	–	–	–	–	–	13.70	21.4	21.4	48.5	25.1	26.9	21.4	–	–
COc1ccc(OCCCCCCCCNc2ccnc3ccccc23)cc1 [AD, N-[8-(4-Methoxyphenoxy)octyl]quinolin-4-amine]	equivalent activity to AC at both the 5-hour and 48-hour time points	–	–	21.6	51.1	54.7	54.7	23.9	23.1	46.1	46.7	26.01	–	–	–	–	–	–	3.98	45.2 (≈ 17.1 µg/mL)
CCCCCCOCCCCCOCCCNc1ccnc2ccccc12 [BC, N-{3-[5-(Hexyloxy)pentyloxy]propyl}quinolin-4-amine]	–	108 (≈ 40.1 µg/mL)	45.7	96.9	47.2	–	–	–	–	–	–	6.40	26	26	32.6	32.3	29.8	28.9	–	–
